Laboratory results as given in US20250074946A1, “USE OF SE-DR AFFINITY PEPTIDE IN PREPARING DRUG FOR TREATING RHEUMATIC DISEASE” (HEBEI FITNESS BIOTECHNOLOGY CO., LTD., priority 2021, published 2025).
Where a SMILES comes first, the peptide text is derived from it. Where no end group is shown, it is not given here.

How the values were obtained:
PBMC = PBMC stimulation test, IL-6 in supernatant by ELISA; format: cell-based, human; conditions: PBMC 1×10^6 cell/ml, peptide 10 μg/ml, 5 days of culture
Text: The SE-DR molecule is directly related to the pathogenesis of RA. It can present RA-related autoantigens in vivo, such as type II collagen (CII), heat shock protein 60 (Hsp60), cartilage glycoprotein (HCgp-39) and so on, and further activate autoreactive T cells, leading to the occurrence of rheumatoid arthritis. An important strategy for the treatment of RA is to use competitive inhibition to block the activation of autoreactive T cells by autoantigen peptides. […] Based on the above principles, we have designed and synthesized a series of altered peptide ligands, and screened for their affinity to SE-DR and for the activation ability on the peripheral blood T cells in RA patients. The specific steps and results are shown in Example 1 and Example 2.
3 mL ficoll was added to a 15 mL centrifuge tube, and 4 mL blood sample was then applied on the surface of ficoll. The tube was centrifuged at 400 g at 18-20° C. for 30-40 min. The upper layer of plasma was aspirated with a Pasteur pipette, and the PBMC layer (approximately 2 mL) was aspirated, and added to a 14 mL centrifuge tube previously filled with at least 3 volumes (6 mL) of PBS. The mixture was gently resuspended. The tube was centrifuged at 60-100 g for 10 min at 18-20° C. After centrifugation, the supernatant was removed with a Pasteur pipette, and the resulting cell mass was resuspended in 6-8 mL PBS and centrifuged at 18-20° C. for 10 min at 60-100 g to remove the supernatant. The cells were resuspended in an appropriate amount of 1640 complete medium and diluted to 1×10^6 cell/ml after cell counting. The diluted cell suspension was added to a 96-well plate. The positive control, allosteric peptide, was added to 100 μl cell culture to a final concentration of 10 μg/ml. The mixture was replenished to 200 μL with 1640 complete medium. After 5 days of culture, the supernatant was aspirated, centrifuged at 3000 rpm for 5 minutes, and the level of IL-6 in the supernatant was detected by ELISA.

[1] = system: immune system of healthy rats; assay: Immune indicators of SD rats after one month of administration (Example 4); format: in vivo, rat; conditions: once a day for 4 weeks, end of administration
Protocol: SD rats were used to investigate the effects of the SE-DR affinity peptides on the immune indicators of the rats after continuous administration for one month. […] At the end of administration, analysis was conducted on the serum anti-FNS007 antibodies, different types of serum immunoglobulins, the serum complement, the peripheral blood T lymphocyte and the serum cytokines.

[2] = system: immune system of healthy monkeys; assay: Immune indicators of cynomolgus monkeys after one month of administration (Example 5); format: in vivo, cynomolgus monkey; conditions: once a day for 4 weeks, end of administration
Text: Cynomolgus monkeys were used to investigate the effects of the SE-DR affinity peptide on the immune indicators of cynomolgus monkeys after continuous administration for one month. […] At the end of administration, the immune indicators, including the serum anti-FNS007 antibodies, the immunoglobulins of different serotypes, the serum complement, the peripheral blood T lymphocyte and the serum cytokines, were observed.

[3] = system: CIA mice infected with chronic hepatitis B; assay: CIA mice infected with chronic hepatitis B (Example 8); format: in vivo, mouse
Protocol: Establishment of chronic hepatitis B model in mice: DBA/1 mice were injected with Raav8-1. 3 HBV (1×10^12 vg/mL) via tail vein to establish HBV chronic hepatitis B model.
DBA/1 mice infected with chronic hepatitis B were used to establish CIA model with chronic hepatitis B infection. Methods: Two days after the mice were injected with Raav8-1.3 HBV (1×10^12 vg/mL) via tail vein, the emulsion of bovine C II and CFA (containing 100 μg collagen) was intradermally injected into the tail head of the mice for immunization. After 21 days, the mice were boosted once by intraperitoneal injection of the emulsion (containing 100 μg collagen) prepared by bovine C II and IFA. Thereafter, the morphological changes of the four paws of the mice were examined every day, and the mice were randomly assigned to the treatment group at inflammation score of 1. […] Another 10 mice with latent hepatitis B infection were not subjected to model establishment and set as the control group. PBS was administrated to both the model group and the control group. The mice in each group were given the corresponding drugs by tail intravenous injection at the volume of 10 ml/kg, once every other day, for 27 consecutive days. The mice were sacrificed on day 28 after administration. The inflammation scores of the four paws of the mice in each group were evaluated during the administration. The serological indicators for virus injection and liver function of the mice were detected on the day of booster immunization (22 days after tail vein injection) and at the time of sacrifice.

[4] = system: CIA rats with latent tuberculosis infection

With `C[C@H](NC(=O)CNC(=O)CNC(=O)[C@H](CCC(N)=O)NC(=O)[C@H](CCC(=O)O)NC(=O)CNC(=O)[C@H](CCCCN)NC(=O)[C@@H](N)Cc1ccccc1)C(=O)NCC(=O)N[C@@H](CCC(=O)O)C(=O)O` [APL1] the “IL-6 levels in the supernatant” value (PBMC) was 18.9 ng/mL.

In the case of `CC[C@H](C)[C@H](N)C(=O)N[C@@H](Cc1c[nH]c2ccccc12)C(=O)N[C@@H](Cc1ccc(O)cc1)C(=O)N[C@H](C(=O)N[C@H](C(=O)N[C@@H](CS)C(=O)N[C@@H](Cc1ccccc1)C(=O)NCC(=O)N[C@@H](CS)C(=O)N[C@@H](CCC(=O)O)C(=O)N[C@H](C(=O)N[C@@H](Cc1c[nH]cn1)C(=O)N[C@@H](C)C(=O)N[C@@H](CCSC)C(=O)N[C@@H](CC(C)C)C(=O)O)[C@@H](C)O)[C@@H](C)O)[C@@H](C)CC` [APL10] (H-IWYITCFGCETHAML-OH; N-terminus and C-terminus assumed), the “IL-6 levels in the supernatant” value (PBMC) is reported as 4.9 ng/mL.

`CC(C)C[C@H](NC(=O)[C@@H](NC(=O)[C@H](Cc1ccccc1)NC(=O)[C@H](CO)NC(=O)[C@@H](N)CCCNC(=N)N)[C@@H](C)O)C(=O)N[C@@H](CC(=O)O)C(=O)N[C@@H](CO)C(=O)N[C@@H](CO)C(=O)N[C@@H](CCC(=O)O)C(=O)N[C@H](C(=O)NCC(=O)N[C@H](C(=O)NCC(=O)O)C(C)C)[C@@H](C)O` [APL15] was tested, and the “IL-6 levels in the supernatant” value (PBMC) was 8.7 ng/mL.

With `CC(C)C[C@H](NC(=O)[C@@H](NC(=O)[C@H](Cc1ccccc1)NC(=O)[C@H](CO)NC(=O)[C@@H](N)CCCNC(=N)N)[C@@H](C)O)C(=O)N[C@@H](CC(=O)O)C(=O)NCC(=O)N[C@@H](CO)C(=O)N[C@@H](CCC(=O)O)C(=O)N[C@H](C(=O)NCC(=O)N[C@H](C(=O)NCC(=O)O)C(C)C)[C@@H](C)O` [APL19] the “IL-6 levels in the supernatant” value (PBMC) was 15.8 ng/mL.

For `CC(C)C[C@H](NC(=O)[C@H](C)NC(=O)[C@@H](NC(=O)[C@H](C)NC(=O)[C@@H](N)CO)C(C)C)C(=O)N[C@@H](CCCNC(N)=O)C(=O)N[C@@H](CO)C(=O)N[C@@H](CO)C(=O)N[C@H](C(=O)N1CCC[C@H]1C(=O)NCC(=O)N[C@H](C(=O)N[C@@H](CCCNC(=N)N)C(=O)O)C(C)C)C(C)C` [APL24, SAVALCitSSVPGVR], the “IL-6 levels in the supernatant” value (PBMC) was 6.6 ng/mL.

With `CC(C)C[C@H](NC(=O)[C@H](CCCNC(=N)N)NC(=O)[C@@H](NC(=O)[C@H](C)NC(=O)[C@@H](N)CO)C(C)C)C(=O)N[C@@H](CCCNC(N)=O)C(=O)N[C@@H](CCCNC(=N)N)C(=O)N[C@@H](CO)C(=O)N[C@H](C(=O)N1CCC[C@H]1C(=O)NCC(=O)N[C@H](C(=O)N[C@@H](CCCNC(=N)N)C(=O)O)C(C)C)C(C)C` [APL26, SAVRLCitRSVPGVR] the “IL-6 levels in the supernatant” value (PBMC) was 7 ng/mL.

In the case of `CC(C)C[C@H](NC(=O)[C@H](CCCNC(N)=O)NC(=O)[C@@H](NC(=O)[C@H](C)NC(=O)[C@H](CO)NC(=O)[C@H](CO)NC(=O)[C@H](CCCNC(N)=O)NC(=O)[C@@H](NC(=O)[C@H](C)NC(=O)[C@H](Cc1ccc(O)cc1)NC(=O)[C@@H](NC(=O)CN)C(C)C)[C@@H](C)O)C(C)C)C(=O)N[C@@H](CCCNC(N)=O)C(=O)O` [APL34, GVYATCitSSAACitLCit], the “IL-6 levels in the supernatant” value (PBMC) is reported as 5.2 ng/mL.

With `CC(C)C[C@H](NC(=O)[C@H](CCCCN)NC(=O)[C@H](CC(N)=O)NC(=O)[C@H](C)NC(=O)[C@H](CCCNC(N)=O)NC(=O)[C@H](CC(N)=O)NC(=O)[C@@H](NC(=O)[C@H](Cc1ccccc1)NC(=O)[C@H](CC(=O)O)NC(=O)[C@@H](N)CCC(N)=O)[C@@H](C)O)C(=O)N[C@@H](CCCCN)C(=O)N[C@@H](CC(N)=O)C(=O)N[C@@H](CO)C(=O)O` [APL35, QDFTNCitANKLKNS] the “IL-6 levels in the supernatant” value (PBMC) was 20.8 ng/mL.

With `CC(C)C[C@H](NC(=O)[C@H](CC(C)C)NC(=O)[C@@H](NC(=O)[C@@H](N)C(C)C)C(C)C)C(=O)N[C@H](C(=O)N[C@@H](C)C(=O)N[C@H](C(=O)N[C@@H](CCC(=O)O)C(=O)NCC(=O)N[C@@H](CCCNC(N)=O)C(=O)N[C@H](C(=O)N[C@@H](CCCNC(=N)N)C(=O)N[C@H](C(=O)N[C@@H](C)C(=O)N[C@@H](CO)C(=O)N[C@@H](C)C(=O)N[C@@H](Cc1ccc(O)cc1)C(=O)N[C@@H](CCC(N)=O)C(=O)N[C@@H](CC(=O)O)C(=O)N[C@@H](CCCCN)C(=O)O)C(C)C)C(C)C)[C@@H](C)O)C(C)C` [APL36] the “IL-6 levels in the supernatant” value (PBMC) was 6.8 ng/mL.

`CC(C)C[C@H](NC(=O)CNC(=O)[C@H](CCCNC(N)=O)NC(=O)[C@H](C)NC(=O)[C@@H]1CCCN1C(=O)[C@@H]1CCCN1C(=O)[C@@H]1CCCN1C(=O)[C@H](C)NC(=O)[C@@H]1CCCN1C(=O)[C@H](CCCNC(N)=O)NC(=O)[C@H](CO)NC(=O)[C@H](CCCNC(=N)N)NC(=O)CNC(=O)[C@H](CCCNC(N)=O)NC(=O)[C@@H](NC(=O)[C@H](CO)NC(=O)[C@H](CCC(=O)O)NC(=O)[C@@H](NC(=O)[C@H](CO)NC(=O)[C@H](CO)NC(=O)[C@H](CCCNC(N)=O)NC(=O)[C@H](CC(C)C)NC(=O)[C@H](CCCNC(N)=O)NC(=O)[C@@H](N)C(C)C)C(C)C)[C@@H](C)O)C(=O)N[C@H](C(=O)O)[C@@H](C)O` [APL37, VCitLCitSSVESTCitGRSCitPAPPPACitGLT] was tested, and the CD3% [1] was 38.29 ± 11.34%, the CD4% [1] was 19.25 ± 7.84% and the CD8% [1] was 18.33 ± 6.15%. It also gave an IFN-γ [1] of 2.44 ± 0.31 pg/mL, an IL-2 [1] of 3.28 ± 2.59 pg/mL and an IL-4 [1] of 1.77 ± 0.85 pg/mL. It also gave a TNF-α [1] of 4.96 ± 2.01 pg/mL, a CD3% [2] of 64.55 ± 17.31% and a CD4% [2] of 28.84 ± 9.35%. It also gave a CD8% [2] of 27.61 ± 9.99%, an IFN-γ [2] of 5.11 ± 0.54 pg/mL and an IL-2 [2] of 4.46 ± 0.44 pg/mL. The IL-4 [2] was 2.18 ± 0.29 pg/mL, the TNF-α [2] was 2.51 ± 0.41 pg/mL and the ALT level ([3]; at sacrifice, day 28) was 47.37 ± 21.13 U/L. The “Observation on the daily condition of mice” value ([3]; during administration) was “No abnormality”, the “Observation on the daily condition of rats” value ([4]; during administration) was “No abnormality” and the Tuberculosis recurrence rate ([4]; peptides 0.2 mmol, adalimumab 1 mg/kg, 21 days) was 0%. The “Culture of MTB from lungs and spleens of rats at sacrifice” value ([4]; sacrifice on day 22, peptides 0.2 mmol, adalimumab 1 mg/kg) was “Negative”.

RSFTLAASETGVG [APL16] was tested, and the “IL-6 levels in the supernatant” value (PBMC) was 6.8 ng/mL.

RSFTLASSATGVG [APL17] was tested, and the “IL-6 levels in the supernatant” value (PBMC) was 5.4 ng/mL.

For YAKQATLKLA [APL6], the “IL-6 levels in the supernatant” value (PBMC) was 6.5 ng/mL.

For YVAQNTLKLA [APL5], the “IL-6 levels in the supernatant” value (PBMC) was 8.7 ng/mL.
